From the supplement of paper PMC7840683
± gives the standard deviation of the averaged measurements.

Tested on: HepaRG
Test: LDH release cytotoxicity, % of total lysis control; higher = more cytotoxic
Conditions: 48 h
Procedure, shortened: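 The CytoTox-ONE kit was used to read LDH in 50 µL spent medium as resorufin fluorescence on a Tecan Safire, with 0.1% Triton X added to total lysis wells. Beforehand, single-lot HepaRG cells on collagen I-coated 96-well plates had been exposed in duplicate for 48 h to eight-point half-log series (top 100 µM) in serum-free induction medium containing 0.5% DMSO. Percent cytotoxicity was normalized against on-plate vehicle and total lysis controls and averaged over duplicates.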

O=[N+]([O-])c1ccc(O)cc1 [4-Nitrophenol]
Conditions	LDH release cytotoxicity [%]
0.03162 µM	-0.152 ± 0.3
0.1 µM	-1.48 ± 0.38
0.3162278 µM	-1.18 ± 0.11
1 µM	-1.8 ± 1.2
3.16228 µM	-0.936 ± 0.28
10 µM	-1.26 ± 0.099
31.6228 µM	-0.409 ± 0.81
100 µM	-0.082 ± 0.47

Clc1nc(Cl)nc(Nc2ccccc2Cl)n1 [Anilazine]
Conditions	LDH release cytotoxicity [%]
0.03162 µM	0.501 ± 1.1
0.1 µM	0.704 ± 0.18
0.3162278 µM	0.988 ± 0.25
1 µM	0.786 ± 0.59
3.16228 µM	0.633 ± 0.28
10 µM	0.855 ± 0.55
31.6228 µM	0.799 ± 0.19
100 µM	0.712 ± 0.08

CS(=O)(=O)c1cc(C(F)(F)F)ccc1C(=O)c1cnoc1C1CC1 [Isoxaflutole]
Conditions	LDH release cytotoxicity [%]
0.03162 µM	-0.368 ± 0.91
0.1 µM	-1.2 ± 0.74
0.3162278 µM	-2.1 ± 0.12
1 µM	-1.58 ± 1.2
3.16228 µM	-0.928 ± 1.1
10 µM	-0.455 ± 0.32
31.6228 µM	-0.687 ± 0.2
100 µM	0.934 ± 0.86

COc1cc(OC)nc(NC(=O)NS(=O)(=O)c2ncccc2OCC(F)(F)F)n1 [Trifloxysulfuron-sodium]
Conditions	LDH release cytotoxicity [%]
0.03162 µM	-1.39 ± 0.15
0.1 µM	-0.662 ± 0.68
0.3162278 µM	-1.7 ± 1.1
1 µM	-1.75 ± 1.3
3.16228 µM	-1.37 ± 0.17
10 µM	-1.12 ± 0.68
31.6228 µM	-1.62 ± 0.26
100 µM	0.885 ± 0.33

Cc1cc(Cl)ccc1OCC(=O)O [MCPA]
Conditions	LDH release cytotoxicity [%]
0.03162 µM	-0.121 ± 0.17
0.1 µM	-0.914 ± 0.53
0.3162278 µM	-0.511 ± 0.28
1 µM	-0.689 ± 0.68
3.16228 µM	-0.578 ± 0.24
10 µM	-0.154 ± 0.47
31.6228 µM	0.865 ± 0.061
100 µM	1.22 ± 0.86

Clc1ccc(C(c2ccc(Cl)cc2)C(Cl)(Cl)Cl)cc1 [Dichlorodiphenyltrichloroethane]
Conditions	LDH release cytotoxicity [%]
0.03162 µM	0.0415 ± 1
0.1 µM	0.0911 ± 1
0.3162278 µM	0.015 ± 0.3
1 µM	0.105 ± 0.45
3.16228 µM	0.853 ± 0.39
10 µM	0.81 ± 0.52
31.6228 µM	0.658 ± 0.99
100 µM	1.05 ± 0.28

CC(C)(C)c1ccccc1 [tert-Butylbenzene]
Conditions	LDH release cytotoxicity [%]
0.03162 µM	-3.19 ± 0.23
0.1 µM	-2.41 ± 1.1
0.3162278 µM	-1.88 ± 0.86
1 µM	-2.09 ± 0.96
3.16228 µM	-1.34 ± 0.44
10 µM	-1.35 ± 0.2
31.6228 µM	-0.245 ± 1.8
100 µM	0.779 ± 2.1

CC12CCC3c4ccc(O)cc4CCC3C1CCC2O (stereo not drawn) [17beta-Estradiol]
Conditions	LDH release cytotoxicity [%]
0.01581 µM	-0.962 ± 0.82
0.05 µM	-1.17 ± 0.59
0.1581139 µM	-1.03 ± 0.66
0.5 µM	-1.37 ± 0.08
1.5811388 µM	-1.1 ± 0.62
5 µM	-0.844 ± 0.077
15.8114 µM	-0.113 ± 0.6
50 µM	6.2 ± 1.8

O=[Si]=O [Silica]
Conditions	LDH release cytotoxicity [%]
0.03162 µM	-1.16 ± 0.54
0.1 µM	-1.07 ± 0.26
0.3162278 µM	-1.23 ± 0.016
1 µM	-0.971 ± 0.66
3.16228 µM	-1.72 ± 0.45
10 µM	-1.27 ± 0.37
31.6228 µM	-0.861 ± 1
100 µM	0.501 ± 1.1

O=C(NC(=O)c1c(F)cccc1F)Nc1ccc(OC(F)(F)C(F)OC(F)(F)F)c(Cl)c1 (stereo not drawn) [Novaluron]
Conditions	LDH release cytotoxicity [%]
0.031623 µM	-0.704 ± 1.1
0.1 µM	-3.48 ± 0.26
0.316228 µM	-3.95 ± 0.86
1 µM	-4.4 ± 1.3
3.16228 µM	-3.9 ± 0.22
10 µM	-4.16 ± 0.54
31.6228 µM	-1.88 ± 0.94
100 µM	4.68 ± 1.6

Cc1cc(N=Nc2ccccc2C)ccc1N [o-Aminoazotoluene]
Conditions	LDH release cytotoxicity [%]
0.03162 µM	1.25 ± 0.25
0.1 µM	0.0136 ± 0.85
0.3162278 µM	-0.529 ± 0.91
1 µM	-1.5 ± 0.26
3.16228 µM	0.597 ± 1.2
10 µM	-0.361 ± 0.022
31.6228 µM	-0.392 ± 0.21
100 µM	1.11 ± 0.27

CCOP(=S)(OCC)SCSCC [Phorate]
Conditions	LDH release cytotoxicity [%]
0.03162 µM	-1.85 ± 0.87
0.1 µM	-2.54 ± 0.18
0.3162278 µM	-2.48 ± 0.53
1 µM	-2.38 ± 0.48
3.16228 µM	-2.32 ± 0.28
10 µM	-1.2 ± 0.89
31.6228 µM	-1.22 ± 0.69
100 µM	-0.0088 ± 0.35

Nc1ccc(-c2ccc(N)cc2)cc1 [Benzidine]
Conditions	LDH release cytotoxicity [%]
0.03162 µM	-0.869 ± 4.3
0.1 µM	-2.2 ± 0.13
0.3162278 µM	-3.09 ± 0.054
1 µM	-2.37 ± 0.27
3.16228 µM	-2.3 ± 0.28
10 µM	0.338 ± 4
31.6228 µM	-0.733 ± 0.045
100 µM	0.306 ± 0.029

CCCCC(CC)COC(=O)c1ccccc1C(=O)O (stereo not drawn) [MEHP]
Conditions	LDH release cytotoxicity [%]
0.0320971 µM	-1.24 ± 1.4
0.1015 µM	-1.27 ± 0.27
0.320971 µM	-1.13 ± 1.5
1.015 µM	-1.47 ± 1.3
3.2097118 µM	-1.28 ± 0.83
10.15 µM	-0.944 ± 0.92
32.0971 µM	-1.07 ± 0.41
101.5 µM	0.594 ± 0.91

CC1CN(N=Cc2cccnc2)C(=O)N=N1 (stereo not drawn) [Pymetrozine]
Conditions	LDH release cytotoxicity [%]
0.03162 µM	4.48 ± 0.29
0.1 µM	4.64 ± 1.1
0.3162278 µM	4.33 ± 1.2
1 µM	3.28 ± 0.56
3.16228 µM	5.3 ± 1.3
10 µM	4.29 ± 1.6
31.6228 µM	6.57 ± 0.73
100 µM	9.47 ± 2.1

CCCCCCCCCCCCN1CCCC1=O [1-Dodecyl-2-pyrrolidinone]
Conditions	LDH release cytotoxicity [%]
0.031623 µM	-0.38 ± 1.3
0.1 µM	-0.917 ± 1.2
0.316228 µM	-3 ± 1.8
1 µM	-2.75 ± 1
3.16228 µM	-3.37 ± 2
10 µM	-2.86 ± 0.27
31.6228 µM	-2.4 ± 0.15
100 µM	0.295 ± 0.75
